# Assays:
# [1] = test system: breast adenocarcinoma (MCF7) cells; experiment: Antiproliferative MTT assay, MCF-7; assay type: cell-based, human; conditions: for IC50: Homo sapiens, MCF7, 72 h incubation, MTT, mean ± SD; for SI (MCF-7): SI = [IC50 HFF]/[IC50 MCF-7]
# Outline: (§1)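 Cells grown in DMEM or MEM with 10% FBS at 37 °C, 5% CO2; tumour lines seeded at 3000 and fibroblasts at 5000 cells/well. Compounds added at 0.01 to 100 µM for 72 h, growth read by MTT. IC50 from dose–response curves by linear regression, tetraplicates, two experiments.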
# [2] = test system: pancreatic ductal adenocarcinoma (CFPAC-1) cells; experiment: Antiproliferative MTT assay, CFPAC-1; assay type: cell-based, human; conditions: for IC50: Homo sapiens, CFPAC-1, 72 h, 72 h incubation, MTT, mean ± SD; for SI (CFPAC-1): SI = [IC50 HFF]/[IC50 CFPAC-1]
# Outline: as §1
# [3] = test system: colorectal carcinoma (HT-29) cells; experiment: Antiproliferative MTT assay, HT-29; assay type: cell-based, human; conditions: for IC50: Homo sapiens, HT-29, 72 h, 72 h incubation, MTT, mean ± SD; for SI (HT-29): SI = [IC50 HFF]/[IC50 HT-29]
# Outline: as §1
# [4] = test system: hepatocellular carcinoma (HepG2) cells; experiment: Antiproliferative MTT assay, HepG2; assay type: cell-based, human; conditions: for IC50: Homo sapiens, HepG2, 72 h, 72 h incubation, MTT, mean ± SD; for SI (HepG2): SI = [IC50 HFF]/[IC50 HepG2]
# Outline: as §1
# [5] = test system: normal skin fibroblasts (HFF-1); experiment: Cytotoxicity MTT assay, normal skin fibroblasts; assay type: cell-based, human; conditions: Homo sapiens, HFF-1, 72 h, 72 h incubation, mean ± SD
# Outline: as §1
# [6] = test system: MCF-7, CFPAC-1, HT-29, HepG2 tumor cell lines and HFF-1 fibroblasts; experiment: Antiproliferative activity, whole cell line panel; assay type: cell-based, human; conditions: tested cell lines
# Method: The human ATCC tumor cell lines breast adenocarcinoma (MCF7), colorectal carcinoma (HT-29), pancreatic ductal adenocarcinoma (CFPAC-1), hepatocellular carcinoma (HepG2), and normal skin fibroblasts (HFF) derived from ATCC (American Type Culture Collection) were cultured in Dulbecco’s Modified Eagle Medium (DMEM) or Minimum Essential Medium (MEM) supplemented with 10% fetal bovine serum (FBS), 2 mM L-glutamine, 100 U/mL penicillin, and 100 µg/mL streptomycin (Lonza, Basel, Switzerland) in a humidified atmosphere with 5% CO2 at 37 °C. For the experiment, carcinoma cell lines and normal human cell lines were seeded in 96-well microtiter plates at a density of 3000 cells per well and 5000 cells per well, respectively, depending on the doubling time of the specific cell line. The test substances were then added at fivefold, tenfold dilutions (0.01 to 100 µM), freshly prepared in the growth medium on the day of testing, and incubated for a further 72 h. After 72 h of incubation, the growth rate of the cells was determined using the MTT assay according to the manufacturer’s guidelines. […] The IC50 values were calculated from the dose–response curves using linear regression analysis. The experiment was performed in tetraplicates in two individual experiments.
# Newly synthesized compounds were evaluated for their cytotoxic activity in vitro against four human cancer cell lines, including human breast adenocarcinoma (MCF-7), ductal pancreatic adenocarcinoma (CFPAC-1), colorectal carcinoma (HT-29), and hepatocellular carcinoma (HepG2), as well as on non-cancerous skin fibroblasts (HFF-1), to check for non-specific toxicity. Furthermore, 5-Fluorouracil (5-FU) was used as a reference drug. The results are expressed as 50% inhibitory concentration (IC50) values and are listed in Table 2, Table 3, Table 4 and Table 5.
# [7] = test system: MDCKII-MDR1 cells (P-glycoprotein); experiment: MDCKII-MDR1 permeability assay; assay type: in vitro ADME, canine cells with over-expressed human MDR1 gene; conditions: permeability class
# Method: (§2) MDCKII-hMDR1 cells were obtained from Solvo Biotechnology, Hungary. DMEM, fetal bovine serum, Glutamax-100, Antibiotic/Antimycotic, DMSO, Dulbecco’s phosphate-buffered saline, and MEM Non-essential amino acids were purchased from Sigma (St. Louis, MO, USA). Bi-directional permeability and P-glycoprotein substrate assessments were carried out in Madin-Darby canine epithelial cells with the over-expressed human MDR1 gene (MDCKII-MDR1), coding for P-glycoprotein. Experimental procedures, as well as cell culture conditions, were the same as previously described. Briefly, compounds (10 µM, 1% DMSO v/v) in duplicate were incubated at 37 °C for 60 min with cell monolayer on 24-well Millicell inserts (Millipore, Burlington, MA, USA) with and without the P-glycoprotein inhibitor Elacridar (2 µM, International Laboratory, San Francisco, CA, USA). The inhibition of P-glycoprotein was verified by amprenavir (Moravek Biochemicals Inc, Brea, CA, USA) and monolayer integrity using Lucifer yellow (Sigma, St. Louis, MO, USA). LC-MS/MS measured compound concentrations and Lucifer yellow was measured on an Infinite F500 (Tecan, Männedorf, CH, Switzerland) using excitation of 485 nm and emission of 530 nm.
# (§3) All samples were quantified using tandem mass spectrometry coupled to liquid chromatography. Samples were analyzed on a Sciex API4000 Triple Quadrupole Mass Spectrometer (Sciex, Division of MDS Inc., Toronto, Canada) coupled to a Shimadzu Nexera X2 UHPLC frontend (Kyoto, Japan). Samples were injected onto a UHPLC column (HALO2 C18, 2.1 × 20 mm, 2 µm or Luna Omega 1.6 µm Polar C18 100A, 30 × 2.1 mm) and eluted with a gradient at 50 °C. The mobile phase was composed of acetonitrile/water mixture (9/1, with 0.1% formic acid) and 0.1% formic acid in deionized water. The flow rate was 0.7 mL/min under gradient conditions, leading to a total run time of 1.5–2 min. A positive ion mode with turbo spray, an ion source temperature of 550 °C, and a dwell time of 150 ms were utilized for mass spectrometric detection. Quantitation was performed using multiple reaction monitoring (MRM) at the specific transitions for each compound.
# [8] = test system: P-glycoprotein (human MDR1); experiment: MDCKII-MDR1 permeability assay; assay type: in vitro ADME, canine cells with over-expressed human MDR1 gene; conditions: dog, MDCK-MDR1; for Papp A→B at 60 min, 10 µM / Papp B→A at 60 min, 10 µM: 37 °C; for efflux ratio at 60 min, 10 µM: <2 no efflux, >2 active efflux
# Method: as §2, §3
# [9] = Metabolic stability in mouse liver microsomes; assay type: in vitro ADME; conditions: for Clearance Values (CL): predicted in vivo hepatic clearance from mouse liver microsome t1/2, 1 µM compound; for Clearance Class.: mouse liver microsomes
# Source text: Mouse liver microsomes were obtained from Corning Life Sciences (Corning, NY, USA). DMSO, nicotinamide adenine dinucleotide phosphate (NADP), glucose-6-phosphate, glucose-6-phosphate dehydrogenase, magnesium chloride, propranolol, caffeine, diclofenac, and phosphate-buffered saline (PBS) were purchased from Sigma (St. Louis, MO, USA). Acetonitrile (ACN) and methanol (MeOH) were obtained from Merck (Darmstadt, Germany). Testosterone was purchased from Steraloids (Newport, RI, USA). Metabolic stability was assessed in mouse liver microsomes. Compounds (final concentration of 1 µM, 0.03% DMSO v/v) were incubated in duplicate in phosphate buffer (50 mM, pH 7.4) at 37 °C together with mouse liver microsomes in the absence and presence of the NADPH cofactor (0.5 mM nicotinamide adenine dinucleotide phosphate, 5 mM glucose-6-phosphate, 1.5 U/mL glucose-6-phosphate dehydrogenase, and 0.5 mM magnesium chloride). Incubation and sampling were performed on a Freedom EVO 200 (Tecan, Männedorf, CH, Switzerland) at […], 10, 20, 30, 45, and 60 min. The reaction was quenched using 3 volumes of a mixture of ACN/MeOH (2:1) containing internal standard (diclofenac), centrifuged, and the supernatants were analyzed using LC-MS/MS. The metabolic activity of the microsomes was verified via simultaneous analysis of several controls including testosterone, propranolol, and caffeine. The in vitro half-life (t1/2) was calculated using GraphPad Prism (v9.0 software) non-linear regression of % of parent compound remaining versus time. In vitro clearance, expressed as µL/min/mg, was estimated from the in vitro half-life (t1/2) and normalized for the protein amount in the incubation mixture, assuming 52.5 mg of protein per gram of liver and using constant values for mouse liver weight/body weight [87.5 g/kg] and mouse liver blood flow (LBF) [131 mL/min/kg].
# as §3
Compound,IC50 [1] [µM],IC50 [2] [µM],IC50 [3] [µM],IC50 [4] [µM],IC50 [5] [µM],antiproliferative activity (in words) [6],SI (MCF-7) [1],SI (CFPAC-1) [2],Permeability [7],"Papp A→B at 60 min, 10 µM [8] [×10⁻⁶ cm/s]","Papp B→A at 60 min, 10 µM [8] [×10⁻⁶ cm/s]","efflux ratio at 60 min, 10 µM [8]",Clearance Values (CL) [9] [%],SI (HT-29) [3],SI (HepG2) [4],Clearance Class. [9]
"OC(Cn1cc(Cn2cnc3ccccc32)nn1)c1ccccc1 (stereo not drawn) [Compound 31b, 1-((1-(2-Hydroxy-2-phenylethyl)-1H-1,2,3-triazol-4-yl)methyl)-1H-benzimidazole]",91 ± 7.2,> 100,> 100,> 100,> 100,deprived of any activity,,,,,,,,,,
"OC(Cn1cc(Cn2ccc3ccccc32)nn1)c1ccccc1 (stereo not drawn) [Compound 26b, 1-((1-(2-Hydroxy-2-phenylethyl)-1H-1,2,3-triazol-4-yl)methyl)-1H-indole]",> 100,> 100,> 100,> 100,> 100,deprived of any activity,,,,,,,,,,
"OC(Cn1cc(Cn2ccc3c(Cl)ncnc32)nn1)c1ccc(Br)cc1 (stereo not drawn) [Compound 44b, 4-Chloro-7-((1-(2-hydroxy-2-(4-bromophenyl)ethyl)-1H-1,2,3-triazol-4-yl)methyl)-7H-pyrrolo[2,3-d]pyrimidine]",25 ± 6.4,15 ± 0.2,30 ± 0.7,32 ± 3.2,27 ± 11.9,,1.1,1.8,highest permeability and HIGH,25.3,62.7,2.5,84,,,
"O[C@@H](Cn1cc(Cn2cnc3c(Cl)ncnc32)nn1)c1ccc(C(F)(F)F)cc1 [Compound (R)-40b, (R)-6-Chloro-9-((1-(2-hydroxy-2-(4-(trifluoromethyl)phenyl)ethyl)-1H-1,2,3-triazol-4-yl)methyl)-9H-purine]",36 ± 23.1,16 ± 2.6,6 ± 0.6,8 ± 0.6,6 ± 4.8,,,,MODERATE,2.2,45.2,21,,1.0,0.7,LOW (<30% low)
"OC(Cn1cc(Cn2ccc3ccccc32)nn1)c1ccc(Br)cc1 (stereo not drawn) [Compound 29b, 1-((1-(2-Hydroxy-2-(4-bromophenyl)ethyl)-1H-1,2,3-triazol-4-yl)methyl)-1H-indol]",29 ± 14,43 ± 9.1,36 ± 1.4,35 ± 1.8,25 ± 4.1,,,0.6,highest permeability and HIGH,18.3,28.6,1.7,92,,,
"OCC(c1ccccc1)n1cc(Cn2cnc3c(Cl)nccc32)nn1 (stereo not drawn) [Compound 46a, 4-Chloro-1-((1-(2-hydroxy-1-phenylethyl)-1H-1,2,3-triazol-4-yl)methyl)-1H-imidazo[4,5-c]pyridine]",> 100,> 100,> 100,> 100,> 100,deprived of any activity,,,,,,,,,,
"OCC(c1ccc(Br)cc1)n1cc(Cn2ccc3c(Cl)ncnc32)nn1 (stereo not drawn) [Compound 44a, 4-Chloro-7-((1-(2-hydroxy-1-(4-bromophenyl)ethyl)-1H-1,2,3-triazol-4-yl)methyl)-7H-pyrrolo[2,3-d]pyrimidine]",79 ± 17.6,69 ± 2,87 ± 9.9,83 ± 28.3,79 ± 17.6,,1.0,1.1,HIGH,10.9,67.4,6.2,56,,,MODERATE (30–70% moderate)
"OC(Cn1cc(Cn2ccc3c(Cl)ncnc32)nn1)c1ccc(C(F)(F)F)cc1 (stereo not drawn) [Compound 45b, 4-Chloro-7-((1-(2-hydroxy-2-(4-(trifluoromethyl)phenyl)ethyl)-1H-1,2,3-triazol-4-yl)methyl)-7H-pyrrolo[2,3-d]pyrimidine]",21 ± 1.6,13 ± 2.2,19 ± 7.5,32 ± 16.1,12 ± 3.1,,0.6,0.9,highest permeability and HIGH,26.5,90.7,3.4,90,,,
"O[C@H](Cn1cc(Cn2cnc3c(Cl)ncnc32)nn1)c1ccc(C(F)(F)F)cc1 [Compound (S)-40b, (S)-6-Chloro-9-((1-(2-hydroxy-2-(4-(trifluoromethyl)phenyl)ethyl)-1H-1,2,3-triazol-4-yl)methyl)-9H-purine]",10 ± 0.4,19 ± 2.4,5 ± 0.1,7 ± 1.5,12 ± 3.4,,,,MODERATE,2.2,42.9,19.5,,2.4,1.7,LOW (<30% low)
